In PubChem BioAssay AID651675 (Sanford-Burnham Center for Chemical Genomics, 2012):
The source made the active and inactive calls.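 The calls were made as follows: active = compounds raising alpha-dystroglycan glycosylation signal with mean half-maximal concentration of 20 µM or lower; inactive = the rest.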

test system: Pro5-aDG cells, alpha-DG glycosylation, IIH6 AlphaLISA; test: enhancers of alpha-dystroglycan glycosylation, analogs – Pro5-aDG cells, AlphaLISA, SAR follow-up (AID 651675)

EC50	SMILES
24.2 µM (inactive)	N=c1n(CCN2CCCC2)c2ccccc2n1CC(=O)c1ccc(Cl)c(Cl)c1
25.2 µM (inactive)	CCn1c(=N)n(CC(=O)c2ccc(Cl)c(Cl)c2)c2ccccc21
15.5 µM	N=c1n(CC(=O)c2ccc(Cl)c(Cl)c2)c2ccccc2n1Cc1ccccc1
26 µM (inactive)	Cn1c(=N)n(CC(=O)c2ccc(Cl)c(Cl)c2)c2ccccc21
33.3 µM (inactive)	C=CCn1c(=N)n(CC(=O)c2ccc(Cl)c(Cl)c2)c2ccccc21

More lines, now with the values behind:

SMILES	EC50
CCn1c(=N)n(CC(=O)c2ccc(Cl)cc2)c2ccccc21	26.6 µM (inactive)
c1ccc(CCNc2nc(-c3c[nH]c4ccccc34)cs2)cc1	5.13 µM
Cn1c(=N)n(CC(=O)c2ccc(F)cc2)c2ccccc21	34.5 µM (inactive)
CCc1cccc2c(-c3csc(NC)n3)c[nH]c12	3.99 µM
CCC(C)Nc1nc(-c2c[nH]c3ccccc23)cs1 (centres undefined)	7.05 µM
CNc1nc(-c2c[nH]c3ccccc23)cs1	10.3 µM
CC(Cc1ccccc1)Nc1nc(-c2c[nH]c3ccccc23)cs1 (centres undefined)	8.68 µM
C=CCNc1nc(-c2c[nH]c3ccccc23)cs1	5.69 µM
Cn1c(=N)n(CC(=O)c2ccc(Cl)cc2)c2ccccc21	30.9 µM (inactive)
